Test results reported in the supplement of paper PMC10307832.

Tests used:
Experiment in all cases: relative viability (nuclei count vs DMSO), 5 days (fraction); higher = more cells survive
[1] = compound: CCN(CCO)CCCC(C)Nc1ccnc2cc(Cl)ccc12 [Hydroxychloroquine] + Cc1cc(Nc2cc(N3CCN(C)CC3)nc(Sc3ccc(NC(=O)C4CC4)cc3)n2)n[nH]1 [Tozasertib] (partner 0.1 µM)
Method in brief: (§1)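 A single step with final 0.05% Triton X-100, 1% formaldehyde and 1 ug/ml Hoechst fixed the cells and stained nuclei 5 days after treatment. Lung cancer cell lines in 1536-well plates had been treated by pin tool the day after seeding with one drug alone or a fixed anchor-drug dose plus five library-drug doses (not always all listed) in √10 steps, and nuclei were counted on 4× images. Relative viability is the ratio of nuclei in treated wells to nuclei in vehicle wells, taken as the median of duplicate plates.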

[2] = compound: CCN(CCO)CCCC(C)Nc1ccnc2cc(Cl)ccc12 [Hydroxychloroquine] + Cc1nc(Nc2ncc(C(=O)Nc3c(C)cccc3Cl)s2)cc(N2CCN(CCO)CC2)n1 [Dasatinib] (partner 0.075 µM)
Method in brief: as §1

[3] = compound: CCN(CCO)CCCC(C)Nc1ccnc2cc(Cl)ccc12 [Hydroxychloroquine] + CCNC(=O)c1noc(-c2cc(C(C)C)c(O)cc2O)c1-c1ccc(CN2CCOCC2)cc1 [Luminespib] (partner 0.01 µM)
Method in brief: as §1

[4] = compound: CCN(CCO)CCCC(C)Nc1ccnc2cc(Cl)ccc12 [Hydroxychloroquine] + N=C(N)NC(=N)NCCc1ccccc1 [Phenformin] (partner 250 µM)
Method in brief: as §1

[5] = compound: CCN(CCO)CCCC(C)Nc1ccnc2cc(Cl)ccc12 [Hydroxychloroquine] + COc1cccc2cc(-c3nc([C@H]4CC[C@H](C(=O)O)CC4)n4ncnc(N)c34)[nH]c12 [OSI-027] (partner 0.5 µM)
Method in brief: as §1

[6] = compound: CCN(CCO)CCCC(C)Nc1ccnc2cc(Cl)ccc12 [Hydroxychloroquine] + COc1cc2c(Oc3ccc(NC(=O)C4(C(=O)Nc5ccc(F)cc5)CC4)cc3F)ccnc2cc1OCCCN1CCOCC1 [Foretinib] (partner 0.25 µM)
Method in brief: as §1

Hydroxychloroquine = compound: CCN(CCO)CCCC(C)Nc1ccnc2cc(Cl)ccc12 [Hydroxychloroquine]
Method in brief: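 Lung cancer cell lines in 1536-well plates were kept overnight at 37 °C, then pinned with five library-drug doses (not always all listed) spaced by √10 on vehicle-anchored plates. After 5 days without medium change, cells were fixed, permeabilised and Hoechst-stained in one step, imaged at 4×, and nuclei were counted with MetaXpress. Viability is treated-well nuclei divided by vehicle-well nuclei, taken as the median over plates. Plates passed only with control CV below 25% and at least one doubling.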

[7] = compound: CCN(CCO)CCCC(C)Nc1ccnc2cc(Cl)ccc12 [Hydroxychloroquine] + O=C(CCCCCCC(=O)Nc1ccccc1)NO [Vorinostat] (partner 1 µM)
Method in brief: as §1

[8] = compound: CCN(CCO)CCCC(C)Nc1ccnc2cc(Cl)ccc12 [Hydroxychloroquine] + Nc1nc2[nH]cc(CCc3ccc(C(=O)N[C@@H](CCC(=O)O)C(=O)O)cc3)c2c(=O)[nH]1 [Pemetrexed] (partner 0.2 µM)
Method in brief: as §1

[9] = compound: CCN(CCO)CCCC(C)Nc1ccnc2cc(Cl)ccc12 [Hydroxychloroquine] + NC(=O)Nc1cc(-c2cccc(F)c2)sc1C(=O)N[C@H]1CCCNC1 [AZD7762] (partner 0.2 µM)
Method in brief: as §1

[10] = compound: CCN(CCO)CCCC(C)Nc1ccnc2cc(Cl)ccc12 [Hydroxychloroquine] + CC(=O)Nc1cccc(-n2c(=O)n(C3CC3)c(=O)c3c(Nc4ccc(I)cc4F)n(C)c(=O)c(C)c32)c1 [Trametinib] (partner 0.02 µM)
Method in brief: as §1

[11] = compound: CCN(CCO)CCCC(C)Nc1ccnc2cc(Cl)ccc12 [Hydroxychloroquine] + Nc1ncn([C@H]2C[C@H](O)[C@@H](CO)O2)c(=O)n1 [Decitabine] (partner 2 µM)
Method in brief: as §1

[12] = compound: CCN(CCO)CCCC(C)Nc1ccnc2cc(Cl)ccc12 [Hydroxychloroquine] + O=C(c1cc(Cc2n[nH]c(=O)c3ccccc23)ccc1F)N1CCN(C(=O)C2CC2)CC1 [Olaparib] (partner 8 µM)
Method in brief: as §1

[13] = compound: CCN(CCO)CCCC(C)Nc1ccnc2cc(Cl)ccc12 [Hydroxychloroquine] + CC(=O)c1c(C)c2cnc(Nc3ccc(N4CCNCC4)cn3)nc2n(C2CCCC2)c1=O [Palbociclib] (partner 0.5 µM)
Method in brief: as §1

NCI-H1623 was tested, and the relative viability ([1]; first compound 0.5 µM) was 0.392, the relative viability ([1]; first compound 1.581 µM) was 0.405 and the relative viability ([1]; first compound 5 µM) was 0.406. The relative viability ([1]; first compound 15.81 µM) was 0.526, the relative viability ([1]; first compound 50 µM) was 0.488 and the relative viability ([2]; first compound 0.5 µM) was 0.554. It also gave a relative viability ([2]; first compound 1.581 µM) of 0.485, a relative viability ([2]; first compound 5 µM) of 0.51 and a relative viability ([2]; first compound 15.81 µM) of 0.547. For the same cell line, the relative viability ([2]; first compound 50 µM) was 0.52, the relative viability ([3]; first compound 0.5 µM) was 0.431 and the relative viability ([3]; first compound 1.581 µM) was 0.409. The relative viability ([3]; first compound 5 µM) was 0.496, the relative viability ([3]; first compound 15.81 µM) was 0.74 and the relative viability ([3]; first compound 50 µM) was 0.537. The relative viability ([4]; first compound 0.5 µM) was 0.544, the relative viability ([4]; first compound 1.581 µM) was 0.565 and the relative viability ([4]; first compound 5 µM) was 0.578. The relative viability ([4]; first compound 15.81 µM) was 0.606, the relative viability ([4]; first compound 50 µM) was 0.588 and the relative viability ([5]; first compound 0.5 µM) was 0.411. It also gave a relative viability ([5]; first compound 1.581 µM) of 0.406, a relative viability ([5]; first compound 5 µM) of 0.449 and a relative viability ([5]; first compound 15.81 µM) of 0.418. For the same cell line, the relative viability ([5]; first compound 50 µM) was 0.439, the relative viability ([6]; first compound 0.5 µM) was 0.823 and the relative viability ([6]; first compound 1.581 µM) was 0.842. It also gave a relative viability ([6]; first compound 5 µM) of 0.88, a relative viability ([6]; first compound 15.81 µM) of 0.937 and a relative viability ([6]; first compound 50 µM) of 0.82. The relative viability (Hydroxychloroquine; 0.5 µM) was 0.88, the relative viability (Hydroxychloroquine; 1.581 µM) was 0.959 and the relative viability (Hydroxychloroquine; 5 µM) was 0.941. The relative viability (Hydroxychloroquine; 15.81 µM) was 0.943 and the relative viability (Hydroxychloroquine; 50 µM) was 0.992.
Cell Line NCI-H2342 has a relative viability ([7]; first compound 0.5 µM) of 0.713, a relative viability ([7]; first compound 1.581 µM) of 0.812 and a relative viability ([7]; first compound 5 µM) of 0.812. The relative viability ([7]; first compound 15.81 µM) was 0.813, the relative viability ([7]; first compound 50 µM) was 0.848 and the relative viability ([1]; first compound 0.5 µM) was 0.493. For the same cell line, the relative viability ([1]; first compound 1.581 µM) was 0.467, the relative viability ([1]; first compound 5 µM) was 0.439 and the relative viability ([1]; first compound 15.81 µM) was 0.508. The relative viability ([1]; first compound 50 µM) was 0.627, the relative viability ([8]; first compound 0.5 µM) was 0.744 and the relative viability ([8]; first compound 1.581 µM) was 0.695. For the same cell line, the relative viability ([8]; first compound 5 µM) was 0.75, the relative viability ([8]; first compound 15.81 µM) was 0.81 and the relative viability ([8]; first compound 50 µM) was 0.906. The relative viability ([9]; first compound 0.5 µM) was 0.458, the relative viability ([9]; first compound 1.581 µM) was 0.47 and the relative viability ([9]; first compound 5 µM) was 0.522. The relative viability ([9]; first compound 15.81 µM) was 0.463, the relative viability ([9]; first compound 50 µM) was 0.449 and the relative viability ([10]; first compound 0.5 µM) was 0.868. It also gave a relative viability ([10]; first compound 1.581 µM) of 0.923, a relative viability ([10]; first compound 5 µM) of 0.908 and a relative viability ([10]; first compound 15.81 µM) of 0.804. It also gave a relative viability ([10]; first compound 50 µM) of 0.881, a relative viability ([11]; first compound 0.5 µM) of 0.774 and a relative viability ([11]; first compound 1.581 µM) of 0.765. It also gave a relative viability ([11]; first compound 5 µM) of 0.782, a relative viability ([11]; first compound 15.81 µM) of 0.756 and a relative viability ([11]; first compound 50 µM) of 0.769. For the same cell line, the relative viability ([2]; first compound 0.5 µM) was 0.338, the relative viability ([2]; first compound 1.581 µM) was 0.312 and the relative viability ([2]; first compound 5 µM) was 0.32. It also gave a relative viability ([2]; first compound 15.81 µM) of 0.292, a relative viability ([2]; first compound 50 µM) of 0.34 and a relative viability ([3]; first compound 0.5 µM) of 0.606. The relative viability ([3]; first compound 1.581 µM) was 0.668, the relative viability ([3]; first compound 5 µM) was 0.706 and the relative viability ([3]; first compound 15.81 µM) was 0.69. It also gave a relative viability ([3]; first compound 50 µM) of 0.809, a relative viability ([4]; first compound 0.5 µM) of 0.59 and a relative viability ([4]; first compound 1.581 µM) of 0.588. It also gave a relative viability ([4]; first compound 5 µM) of 0.561, a relative viability ([4]; first compound 15.81 µM) of 0.619 and a relative viability ([4]; first compound 50 µM) of 0.645. For the same cell line, the relative viability ([12]; first compound 0.5 µM) was 0.434, the relative viability ([12]; first compound 1.581 µM) was 0.386 and the relative viability ([12]; first compound 5 µM) was 0.42. It also gave a relative viability ([12]; first compound 15.81 µM) of 0.421, a relative viability ([12]; first compound 50 µM) of 0.509 and a relative viability ([5]; first compound 0.5 µM) of 0.585. It also gave a relative viability ([5]; first compound 1.581 µM) of 0.578, a relative viability ([5]; first compound 5 µM) of 0.613 and a relative viability ([5]; first compound 15.81 µM) of 0.68. For the same cell line, the relative viability ([5]; first compound 50 µM) was 0.69, the relative viability ([13]; first compound 0.5 µM) was 0.565 and the relative viability ([13]; first compound 1.581 µM) was 0.514. It also gave a relative viability ([13]; first compound 5 µM) of 0.507, a relative viability ([13]; first compound 15.81 µM) of 0.487 and a relative viability ([13]; first compound 50 µM) of 0.514. For the same cell line, the relative viability ([6]; first compound 0.5 µM) was 0.917, the relative viability ([6]; first compound 1.581 µM) was 0.995 and the relative viability ([6]; first compound 5 µM) was 1.05. It also gave a relative viability ([6]; first compound 15.81 µM) of 1.01, a relative viability ([6]; first compound 50 µM) of 1.1 and a relative viability (Hydroxychloroquine; 0.5 µM) of 0.986. It also gave a relative viability (Hydroxychloroquine; 1.581 µM) of 0.897, a relative viability (Hydroxychloroquine; 5 µM) of 0.987 and a relative viability (Hydroxychloroquine; 15.81 µM) of 0.991. For the same cell line, the relative viability (Hydroxychloroquine; 50 µM) was 1.13.
